Measured values: patent US7507834B2, “Substituted anilinopyrazoles” (SmithKline Beechan Corporation, priority 2003, dated 2009)

molecular target: CDK2 (Homo sapiens, UniProt P24941); experiment: CDK2 substrate phosphorylation assay; assay type: biochemical; conditions: CDK2 expressed in baculovirus system; peptide Biotin-aminohexyl-ARRPMSPKKKA-NH2, [g-32P]ATP; pIC50 = −log10(IC50)
Procedure: The compounds of the present invention have valuable pharmacologic properties. Different compounds from this class are particularly effective at inhibiting CDK2. Substrate phosphorylation assays were carried out as follows:
Cyclin dependent protein kinase 2 assays utilized the peptide Biotin-aminohexyl-ARRPMSPKKKA-NH2 (SEQ ID NO:1) as phosphoryl group acceptor. CDK2 was expressed utilizing a baculovirus expression system and was partially purified to comprise 20-80% of total protein, with no detectable competing reactions present. Typically, assays were performed by incubating enzyme (0.2-10 nM), with and without inhibitor, peptide substrate ([…]), [g-32P]ATP ([…]), and 10-20 mM Mg2+ for periods of time generally within the range 10-120 minutes. Reactions were terminated with 0.2-2 volumes of either 20% acetic acid or 50-100 mM EDTA buffered to pH 7 (substrate consumption <20%). The buffer employed in enzyme assay was 100 mM HEPES pH 7.5 containing 0.1 mg/mL BSA and 5% DMSO. Inhibitors were diluted in 100% DMSO prior to addition into the assay. Detection of peptide phosphorylation was accomplished by scintillation counting following either collection of peptide onto phosphocellulose filters (for reactions stopped with acetic acid), collection of peptide in wells of 96 well plates coated with Streptavidin (Pierce) (reactions were stopped with EDTA), or addition of Avidin coated Scintillant impregnated beads (Scintillation Proximity Assays from Amersham, reactions were stopped with EDTA). Counts detected by any of these methodologies minus the appropriate background (assays with additional 40 mM EDTA or lacking peptide substrate) were assumed to be proportional to the reaction initial rates, and IC50s were determined by a least squares fit to the equation CPM=Vmax*(1−([I]/(K+[I])))+nsb, or −pIC50s were determined by a fit to the equation CPM=nsb+(Vmax−nsb)/(1+(x/10x−pIC50)), where nsb are the background counts […]. Radioactivity was determined by liquid scintillation counting.

| Compound | IC50 |
| --- | --- |
| Nc1ccc(-c2cc(Nc3ccc(S(N)(=O)=O)cc3)[nH]n2)cc1 [Ih, 4-[5-(4-Amino-phenyl)-2H-pyrazol-3-ylamino]-benzenesulfonamide] | 0.102 to 1 nM |
| NS(=O)(=O)c1ccc(Nc2cc(-c3cccc(N4CCOCC4)c3)n[nH]2)cc1 [In, 4-[5-(3-Morpholin-4-yl-phenyl)-2H-pyrazol-3-ylamino]-benzenesulfonamide] | 102 to 20000 nM |
| NS(=O)(=O)c1ccc(Nc2cc(-c3cccc(NC(=O)Nc4cc(C(F)(F)F)ccc4F)c3)n[nH]2)cc1 [Compound Il, 4-(5-{3-[3-(2-Fluoro-5-trifluoromethyl-phenyl)-ureido]-phenyl}-2H-pyrazol-3-ylamino)-benzenesulfonamide] | 10.2 to 100 nM |
| Nc1cccc(-c2cc(Nc3ccc(S(N)(=O)=O)cc3)[nH]n2)c1 [Compound Ij, 4-[5-(3-Amino-phenyl)-2H-pyrazol-3-ylamino]-benzenesulfonamide] | 1.02 to 10 nM |
